According to patent US20070196478A1, “ANTIVIRAL COMPOSITIONS” (priority 1999, published 2007):

Test: thermal stability of the antiviral compound after melt extrusion (HPLC)
Format: physicochemical
Settings: melt extrudate with HPMC 2910 5 mPa·s, 70° C. to […] C.
Text: The melt extrudate was milled and fractions with particle size below 150 μm (condition I in point 6) and between 500 and 850 μm (condition II in point 6) were collected.

degradation of the antiviral compound after melt extrusion: No degradation
Structure (SMILES): Cc1cc(C)c(Nc2ccnc(Nc3ccc(C#N)cc3)n2)c(C)c1 [Compound 17 of formula (I-A), 4-[[4-[(2,4,6-trimethylphenyl)amino]-2-pyrimidinyl]amino]benzonitrile]
